From a melting point compilation (Tetko et al.; mined from patent text by program, amines drawn as free bases though some values may be those of a salt)
Non-standard residues stand in square brackets, D forms with d. Residues, ends and D or L forms follow the SMILES beside them. *: point of attachment. 1Nal = N[C@@H](Cc1cccc2ccccc12)C(=O)O; Sta = CC(C)C[C@H](N)[C@@H](O)CC(=O)O; Cbz = O=C(OCc1ccccc1)*; NHNH2 = NN*

melting point	SMILES
155 to 160 °C	COc1cc(Nc2c(C#N)cnc3cc(-c4ccc(CN5CCCCC5)s4)ccc23)c(Cl)cc1Cl
125 °C	CCCCCCCCCCC(C)(C)C(=O)Nc1c(C)c(N)c(C)c2c1OC(C)(C)C2
75 to 76 °C	COC(=O)CCN1C[C@H]2Cc3ccccc3[C@H](c3ccccc3)[C@H]2C1 (racemic)
72 to 73 °C	CCCCCCCCCCOc1cnc(-c2ccc(CCCCCC(C)OC(C)=O)cc2)nc1 (centres undefined)
62 to 63.9 °C	O=C(O)CC1(CCCCCCCCCCC2(C(=O)O)CC2)CCC1
129 to 131 °C	CCOC(=O)COc1ccc(Cn2c(-c3ccc(OCc4ccccc4)cc3)c(C)c3cc(OCc4ccccc4)ccc32)cc1
180 to 181 °C	Cc1ccccc1CNC(=O)N1Cc2ccccc2-n2nc(C(C)(C)C)cc21
216 °C	COc1cc2c(-c3cc4cccnc4[nH]3)cn(C)c2cc1OC(C)C
140 to 141 °C	COc1cc2cnnc(N3CCC(CCN(C)C(=O)N(C)C)CC3)c2cc1OC
123 to 124 °C	O=S(=O)(c1ccc(Br)s1)N1CCN(c2ccc(F)cc2)CC1
> 300 °C	CCCCc1c2c(nc3c1CCc1cc4nc(C#N)c(N)cc4nc1-3)C(=O)CCC2
195 to 198 °C	CC(C)(C)c1cc(NC(=O)Nc2cccc(Cl)c2Cl)c(-c2ccncc2)o1
102 to 104 °C	O=C1CC(c2ccc(C3CCCCCC3)cc2)C(=O)O1 (centres undefined)
142 to 144 °C	Cc1cc(Nc2nccc(-c3sc(CO)nc3C)n2)ccc1N1CCCCC1
82 to 83 °C	CC(C)(C)n1cc(CN(Cc2cn(CCO)nn2)Cc2cn(C(C)(C)C)nn2)nn1
124 to 126 °C	Nc1ccc(OCC(=O)OCCOC(=O)COc2ccc(N)cc2)cc1
208 to 210 °C	Clc1nnccc1-c1c(-c2ccccc2)nn2ccccc12
142 to 143 °C	COc1cc(OC)c2cc(-c3ccc(F)cc3)oc2c1
> 230 °C	CSc1nn2c(N(C)C)cc(C)nc2c1S(=O)(=O)c1ccccc1
260 °C	CCCCc1nc(O)c(CC(=O)OCC)c(O)n1
256 to 258 °C	CNC(=O)c1c(N)n(C2CCCC2)c2nc(Cl)ccc2c1=O
201 to 202 °C	CC(Cl)(Cl)C(NC(=O)c1ccc(Cl)cc1)Nc1c(Nc2cccnc2)c(=O)c1=O (centres undefined)

melting point	SMILES
150 to 153 °C	COC(=O)[C@H](Cc1ccc([N+](=O)[O-])cc1)NC(=S)c1c(C)cccc1Cl
111 to 112 °C	CCCOCC1(c2onc(-c3ccc(O)cc3)c2-c2ccccc2)CC1
216 to 217 °C	N#Cc1cc(-c2ncccc2C(=O)O)ccc1OCCc1ccccc1[N+](=O)[O-]
172 to 174 °C	CC(C)C(C(=O)O)c1ccc(O)cc1 (centres undefined)
248 to 249 °C	CC(C)Cc1[nH]nc2c(N)nc3ccccc3c12
174 to 177 °C	Cc1onc(-c2ccccc2)c1-c1[nH]c2ccccc2c1CCC(=O)N(C)C
247 to 250 °C	Cc1c(O)nc2sc(SCc3ccccc3)nn2c1=O
97 to 99 °C	C=C1CCC2C3CCC4CC(O)C(OCC)CC4(C)C3C(=NO)CC12C (centres undefined)
131 to 133 °C	N#Cc1ccc(CBr)c2ccccc12
150 to 156 °C	CC1CCC2C3CCC4CC(O)CCC4(C)C3C(N(C)C)CC12C (centres undefined)
51 °C	COC(=O)CCOc1ccc(C#N)cc1
167 to 168 °C	CNCc1cccc(COc2nc(Cl)cnc2NS(=O)(=O)c2cccc(Cl)c2Cl)c1
127 to 128 °C	CCOC(=O)/C(CCO[N+](=O)[O-])=C(\c1ccc(Cl)cc1)c1ccc(S(C)(=O)=O)cc1
119 to 123 °C	CCCc1c(OCCCOc2ccc(C(=O)CCC(=O)O)c(Cl)c2Cl)ccc(C(C)=O)c1O
176 to 178 °C	CCC(=O)Oc1cccc2c1C(=O)c1c(OC(=O)CC)cc(-c3nnn[nH]3)cc1C2=O
152 to 154 °C	Cc1ccccc1Nc1nc(N2CCCC2)nc2ccccc12
92 to 93 °C	CCc1oc(C(O)(C(F)(F)F)C(F)(F)F)nc1-c1ccc(S(C)(=O)=O)cc1
256 to 259 °C	CC(=O)Nc1cc2c(cc1[N+](=O)[O-])[C@@H](NC(C)=O)[C@H](O)C(C)(C)O2 (relative stereo)
166 to 167 °C	O=C(c1ccc([N+](=O)[O-])cc1)N1CCSC1=S
109 to 112 °C	O=S(=O)(c1cc(Cl)[nH]c1-c1ccc(Cl)cc1)C(F)(F)F
175 to 177 °C	CSc1nc(N)n(C(=O)c2ccc(Cl)cc2)n1
235 to 240 °C	COc1cc2ccnc(N3CCN(c4ccc5c(c4)CCC(=O)N5)CC3)c2cc1OC

melting point	SMILES
186 to 188 °C	CCc1cccc(CC)c1C(=O)Nc1nnc(C(C)(CC)CC)s1
254 °C	CSc1nc(=O)[nH]cc1Cl
154 to 155 °C	CCN(CC)C(=O)C(Cl)=C(Cl)C(=O)O
198 to 200 °C	CCOC(=O)c1csc(Nc2ccc(C)cn2)n1
108 to 110 °C	O=C(O)CCNC(=O)C(CS)C(F)(F)F (centres undefined)
73 to 75 °C	CCOc1ccc(Nc2cccc3ccccc23)cc1
232 to 234 °C	CCOc1cc2c(cc1OCC)[C@@H]1CCCC[C@@H]1N=C2c1ccc(O)cc1 (racemic)
187 to 189 °C	COC(=O)CC/C(C)=C/Cc1c(NC=O)c2c(c(C)c1OC)COC2=O
62 to 67 °C	CN(C(=O)OC(C)(C)C)c1cc(Sc2ccc(O)cc2)ccc1N
326 °C	O=C(Oc1cccc2c(OC(=O)c3ccc(O)cc3)c3c(OC(=O)c4ccc(O)cc4)cccc3cc12)c1ccc(O)cc1
120 to 127 °C	CC(C)C[C@H](NC(=O)[C@H](Cc1c[nH]cn1)NC(=O)[C@H](Cc1cccc2ccccc12)NC(=O)OCc1ccccc1)[C@@H](O)CC(=O)NN (Cbz-[1Nal]-His-[Sta]-NHNH2)
120 to 122 °C	Cn1c(-c2cccnc2)cc(=O)n(C)c1=O
110 to 112 °C	COc1ccc(N2CCN(CC(O)COc3ccc(OCc4ccccc4)cc3)CC2)c(OC)c1 (centres undefined)
240 to 241 °C	O=C1C(=O)c2ccc(-c3ccccc3)cc2C2=C1SCC1(CCN(C(=O)c3cccc(Cl)c3)CC1)O2
50 to 52 °C	O=C(O)c1ccc(NCCCCCCCCCCCc2ccccc2)cc1
115 to 116 °C	CC(C)n1nc(-c2sc(NCc3ccco3)nc2-c2ccccc2)ccc1=O
167 °C	COc1cncc(-c2cccc(OC3SCC(OC(C)=O)C(OC(C)=O)C3OC(C)=O)c2)c1 (centres undefined)
105 °C	CCC(C)N(C)C(=O)c1cc(-c2ccccc2)c2sccc2c1 (centres undefined)
240 °C	N#Cc1cccc(C2=Nc3ccc(-c4cccc(F)c4F)cc3NC(=O)C2)c1
144 °C	O=C(O)Cc1ccc(C(=O)c2ccccc2)s1
221 to 224 °C	N#CCn1cc(-c2ccccc2)c(=O)c(-c2ccccc2)c1
90 °C	O=C(c1ccc(O)cc1)c1c(-c2ccc(O)cc2)sc2ccccc12

SMILES	melting point
COC(=O)[C@@H]1C[C@H](O)C(=O)[C@@H]2[C@@]3(C)C[C@@H](c4ccoc4)OC(=O)[C@H]3CC[C@]21C	211 to 214 °C
COc1ccc(C(O)(c2ccc(OC)cc2)C2CCNCC2)cc1	153 to 155 °C
CN1CC(C[N+]2([O-])CC(=O)NC2=O)CC2c3cccc4[nH]cc(c34)CC21 (centres undefined)	163 to 165 °C
